Measurements published in patent US20230181580A1, “TREATMENT OF PROLIFERATIVE DISEASES OF THE CNS” (AUCENTRA THERAPEUTICS PTY LTD, priority 2020, published 2023).

Experiments:
[1] = tested on: phosphorylated Rb proteins (pRb Ser780, pRbSer795, pRb807/811); assay: Western blot analysis of Rb phosphorylation; assay type: cell-based; details: 24 h treatment, FIG. 3A
Experimental: Cells were seeded at a density of 3×10^5 with 10 mL fresh medium on a sterile culture dish and incubated at 37° C. 5% CO2 for overnight prior to compound treatment. After 24 h, cells were harvested with PBS, centrifuged at 300×g for 5 mins, and lysed with 100 μL lysis buffer (25 mM 4-(2-hydroxyethyl)-1-piperazineethanesulphonic acid, 300 mM sodium chloride, 1.5 mM magnesium chloride, 0.5% sodium deoxycholate, 20 mM p-glycerophosphate, 1% Triton X-100, 0.1% sodium dodecyl sulphate, 0.2 mM EDTA, 0.5 mM dithiothreitol, 1 mM sodium orthovanadate and 25× protease inhibitor cocktail). Protein lysate was collected after 10 mins of maximum speed centrifugation at 4° C. The protein concentration of cell lysates was determined through performing a BSA standard curve using the Bio-Rad DC protein assay kit II (Bio-Rad, Sydney, NSW, Australia) according to the manufacturer's protocol. 30 μg protein was measured, mixed with 3× loading buffer and denatured at 95° C. for 5 mins using T100 thermal cycler (Bio-Rad). Molecular mass of each sample was then separated by gel electrophoresis on a 4-20% polyacrylamide gel at 120V for 1 h. The resolved proteins were transferred onto nitrocellulose membranes and blocked with 5% skimmed milk in Tris-buffered saline and Tween 20 (TBST) for 1 h at room temperature. […] Band intensity was determined using a ChemiDoc™ multiplexing imaging system (Bio-Rad). […]

CDK1/B = CDK1/B (Homo sapiens, UniProt P06493); assay: CDK kinase inhibition assay (radiometric / ADP Glo); assay type: biochemical
CDK1/B, sequence (P06493 whole entry): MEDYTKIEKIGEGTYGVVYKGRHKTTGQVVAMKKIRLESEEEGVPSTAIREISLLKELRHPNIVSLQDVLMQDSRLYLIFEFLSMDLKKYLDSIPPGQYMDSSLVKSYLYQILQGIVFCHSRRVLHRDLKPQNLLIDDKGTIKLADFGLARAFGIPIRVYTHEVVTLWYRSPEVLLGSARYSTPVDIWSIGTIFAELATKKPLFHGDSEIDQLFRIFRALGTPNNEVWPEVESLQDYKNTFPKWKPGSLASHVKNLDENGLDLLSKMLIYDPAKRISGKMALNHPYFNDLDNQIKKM
CDK1/B, sequence (P14635 whole entry partner): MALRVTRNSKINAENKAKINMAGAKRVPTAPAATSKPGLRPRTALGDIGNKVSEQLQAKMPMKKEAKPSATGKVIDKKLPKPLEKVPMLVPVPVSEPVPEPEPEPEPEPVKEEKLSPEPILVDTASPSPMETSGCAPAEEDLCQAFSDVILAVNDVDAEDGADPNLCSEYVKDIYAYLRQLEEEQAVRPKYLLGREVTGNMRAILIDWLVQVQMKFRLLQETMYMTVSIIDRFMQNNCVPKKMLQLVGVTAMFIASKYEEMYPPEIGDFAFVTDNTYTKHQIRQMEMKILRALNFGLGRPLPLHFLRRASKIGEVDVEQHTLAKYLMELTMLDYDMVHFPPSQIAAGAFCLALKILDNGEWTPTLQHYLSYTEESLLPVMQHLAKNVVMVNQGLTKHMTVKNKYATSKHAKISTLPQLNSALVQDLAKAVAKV
Experimental: (§1) Eurofins Pharma Discovery or Reaction Biology Corporation Kinase Profiler services were used to measure inhibition of CDKs and other kinases by radiometric assay (RIA). Inhibition of CDK4/Cyclin D1, CDK6/Cyclin D3 and CDK9/T1 were also determined in-house using ADP Glo Kinase assays (Promega Corporation, Madison Wis., United States of America). Briefly, the kinase reaction for CDK4/Cyclin D1 and CDK6/Cyclin D3 was performed with kinase reaction buffer ([…] Tris base pH 7.5, 20 mM MgCl2, 0.4 mM DTT), 0.1 mg/ml BSA and RB-CTF substrate (retinoblastoma protein1 C-terminal fraction). For CDK9/CyclinT1, the kinase reaction was performed with standard assay buffer and Kinase Dilution Buffer and RBER-IRStide substrate. Serial dilutions of 1:3 were prepared for test compounds for 10 concentrations (from 10 μM to 0.5 nM). The kinase reactions were started by addition of ATP, incubated for 40 min at 37° C. and then stopped by adding 10 μL of ADP Glo reagent. After incubation at room temperature (RT) in the dark for 40 min, 20 μL of kinase detection reagent was added per well and incubated for 40 min. Luminescence was measured using an EnVision Multilabel plate reader (PerkinElmer, Buckinghamshire, United Kingdom). Positive and negative controls were performed in the presence and absence of CDK kinases, respectively. Half-maximal inhibition (IC50) values were calculated using a 4-parameter logistic non-linear regression model with Graphpad prism (Version 6.0). Apparent inhibition constants (Ki) values were calculated from Km (ATP) and IC50 values for the respective kinases.

CDK9/T1 = CDK9/T1 (Homo sapiens, UniProt P50750); assay: as above; assay type: biochemical
CDK9/T1, sequence (P50750 whole entry): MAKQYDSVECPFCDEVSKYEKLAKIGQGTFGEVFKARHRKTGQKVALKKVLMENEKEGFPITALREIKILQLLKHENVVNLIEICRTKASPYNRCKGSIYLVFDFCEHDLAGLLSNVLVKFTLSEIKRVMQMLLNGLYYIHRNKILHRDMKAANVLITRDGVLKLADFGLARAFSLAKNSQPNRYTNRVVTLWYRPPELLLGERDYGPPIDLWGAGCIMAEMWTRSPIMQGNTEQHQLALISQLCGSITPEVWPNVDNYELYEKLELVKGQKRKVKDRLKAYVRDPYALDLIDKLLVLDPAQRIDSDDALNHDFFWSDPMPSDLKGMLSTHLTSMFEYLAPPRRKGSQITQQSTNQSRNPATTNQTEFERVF
CDK9/T1, sequence (O60563 whole entry partner): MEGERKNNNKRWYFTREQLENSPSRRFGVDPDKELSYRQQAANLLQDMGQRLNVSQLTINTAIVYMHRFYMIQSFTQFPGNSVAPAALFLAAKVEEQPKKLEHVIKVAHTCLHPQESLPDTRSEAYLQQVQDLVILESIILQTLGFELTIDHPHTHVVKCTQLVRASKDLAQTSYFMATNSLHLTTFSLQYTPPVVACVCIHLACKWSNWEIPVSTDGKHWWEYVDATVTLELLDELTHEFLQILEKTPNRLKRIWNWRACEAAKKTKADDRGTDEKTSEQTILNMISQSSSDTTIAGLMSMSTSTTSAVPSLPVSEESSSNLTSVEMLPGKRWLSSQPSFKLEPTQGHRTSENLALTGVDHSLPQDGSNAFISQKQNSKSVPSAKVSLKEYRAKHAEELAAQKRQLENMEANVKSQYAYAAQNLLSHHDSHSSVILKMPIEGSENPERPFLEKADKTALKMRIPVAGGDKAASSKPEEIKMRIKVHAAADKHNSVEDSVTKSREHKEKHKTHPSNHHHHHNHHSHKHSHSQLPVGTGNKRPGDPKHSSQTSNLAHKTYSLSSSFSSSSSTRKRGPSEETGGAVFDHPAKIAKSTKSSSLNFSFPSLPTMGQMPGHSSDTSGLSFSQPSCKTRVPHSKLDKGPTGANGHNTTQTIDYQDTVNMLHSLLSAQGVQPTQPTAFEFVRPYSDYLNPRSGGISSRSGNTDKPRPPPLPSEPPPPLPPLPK
Experimental: as §1

CDK2/A = CDK2/A (Homo sapiens, UniProt P24941); assay: as above; assay type: biochemical
Experimental: as §1

CDK7/H = CDK7/H (Homo sapiens, UniProt P50613); assay: as above; assay type: biochemical
CDK7/H, sequence (P50613 whole entry): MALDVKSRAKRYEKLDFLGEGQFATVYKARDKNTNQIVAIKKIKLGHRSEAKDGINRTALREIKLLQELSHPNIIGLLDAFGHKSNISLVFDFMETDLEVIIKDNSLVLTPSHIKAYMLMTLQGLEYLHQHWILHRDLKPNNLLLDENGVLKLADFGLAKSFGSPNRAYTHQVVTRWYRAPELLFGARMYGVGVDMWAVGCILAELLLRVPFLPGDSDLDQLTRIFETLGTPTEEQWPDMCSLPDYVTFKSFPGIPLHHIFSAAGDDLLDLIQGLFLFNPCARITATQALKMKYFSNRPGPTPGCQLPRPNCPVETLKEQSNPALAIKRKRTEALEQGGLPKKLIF
CDK7/H, sequence (P51946 whole entry partner): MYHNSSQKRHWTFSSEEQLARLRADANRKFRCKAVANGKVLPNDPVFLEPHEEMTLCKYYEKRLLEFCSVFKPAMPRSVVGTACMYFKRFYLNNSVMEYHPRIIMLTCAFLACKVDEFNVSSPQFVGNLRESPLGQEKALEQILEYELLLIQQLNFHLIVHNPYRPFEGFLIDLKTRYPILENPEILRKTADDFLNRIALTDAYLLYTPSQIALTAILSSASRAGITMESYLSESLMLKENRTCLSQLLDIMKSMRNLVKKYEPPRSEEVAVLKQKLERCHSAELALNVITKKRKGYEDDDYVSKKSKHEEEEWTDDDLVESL
CDK7/H, sequence (P51948 whole entry partner): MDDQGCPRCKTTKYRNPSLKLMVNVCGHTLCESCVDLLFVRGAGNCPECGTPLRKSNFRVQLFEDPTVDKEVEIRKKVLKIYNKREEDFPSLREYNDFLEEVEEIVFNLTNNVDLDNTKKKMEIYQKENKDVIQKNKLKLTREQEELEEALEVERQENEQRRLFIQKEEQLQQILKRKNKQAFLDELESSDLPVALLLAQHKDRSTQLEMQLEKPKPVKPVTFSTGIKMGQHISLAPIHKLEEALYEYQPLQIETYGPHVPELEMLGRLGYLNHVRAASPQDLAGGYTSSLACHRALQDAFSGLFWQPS
Experimental: as §1

MB453 = assay: MTT proliferation assay, breast; assay type: cell-based; details: 72 h, read-out: Antiproliferative activity GI50 MB453
From the text: (§2) Representative compounds from Example 1, were subjected to standard MTT (3-(4,5-dimethylthiazol-2-yl)-2,5-diphenyltetrazolium bromide) and resazurin assays on solid tumour cell lines (including GBM cell lines) and leukemia cell lines, respectively, as previously reported (Wang S et al., J Med Chem 47:1662-1675, 2004; and Diab S. et al. CheMedChem 9:962-972, 2014).

A2780 = assay: MTT proliferation assay, ovarian; assay type: cell-based; details: Homo sapiens, 72 h, read-out: Antiproliferative activity GI50 A2780
From the text: as §2

T98G = assay: MTT proliferation assay, glioblastoma; assay type: cell-based; details: Homo sapiens, 72 h, read-out: Antiproliferative activity GI50 T98G
Experimental: (§3) All three GBM cell lines used in this example, namely U87, U251 and T98G, were cultured in Eagle's Minimum Essential Medium (EMEM) with 10% fetal bovine serum in 75 cm^2 flasks at 37° C. and 5% CO2. All cell lines were confirmed to be mycoplasma-free prior to any experiment setup.
as §2

U87 = assay: MTT proliferation assay, glioblastoma; assay type: cell-based; details: Homo sapiens, U-87 MG, 72 h, read-out: Antiproliferative activity GI50 U87
Experimental: as §3, §2

U251 = assay: MTT proliferation assay, glioblastoma; assay type: cell-based; details: Homo sapiens, U-251, 72 h, read-out: Antiproliferative activity GI50 U251
Experimental: as §3, §2

[2] = tested on: GBM patient-derived G4T cells; assay: Orthotopic GBM patient-derived G4T xenograft; assay type: in vivo, NSG mice; details: single agent or with TMZ; p<0.001
Experimental: In a separate study, NSG mice (n=8) orthotopically engrafted with GBM patient-derived G4T cells were administered with vehicle, compound 1, TMZ, and co-treatment of compound 1 and TMZ, respectively, as shown in FIG. 6B. The disease burden of each of the treatment groups was measured by bioluminescent whole-body imaging.

Colo205 = assay: MTT proliferation assay, colorectal; assay type: cell-based; details: Homo sapiens, COLO 205, 72 h, read-out: Antiproliferative activity GI50 Colo205
From the text: as §2

PANC1 = assay: MTT proliferation assay, pancreas; assay type: cell-based; details: Homo sapiens, PANC-1, 72 h, read-out: Antiproliferative activity GI50 PANC1
From the text: as §2

SMILES: CNc1nc(C)c(-c2nc(Nc3ccc(N4CCC(N(C)C)CC4)cn3)ncc2F)s1 [Compound 1, 5-(2-((5-(4-(dimethylamino)piperidin-1-yl)pyridin-2-yl)amino)-5-fluoropyrimidin-4-yl)-N,4-dimethylthiazol-2-amine]
- level of phosphorylated Rb proteins [1]: reduces the level of phosphorylated Rb proteins
- Ki (CDK1/B): > 1000 nM
- Ki (CDK9/T1): > 1000 nM
- Ki (CDK2/A): > 1000 nM
- Ki (CDK7/H): > 1000 nM
- GI50 (MB453): 330 nM
- GI50 (A2780): 70 nM
- GI50 (T98G): 2960 nM
- GI50 (U87): 4460 nM
- GI50 (U251): 5520 nM
- inhibition of tumour growth (bioluminescent imaging) [2]: significant inhibition of tumour growth either as a single agent or in combination with TMZ
- GI50 (Colo205): 2320 nM
- GI50 (PANC1): 1320 nM
